Results as given in US20070212360A1, “Modulation of mitochondrial oxygen consumption for therapeutic purposes” (priority 2006, published 2007).

What was measured:
[1] = system: HIF1 targets PDK1, Bnip3, and Bnip3L in RKO and Su.86 human tumor cells; test: Western blot of HIF1 target proteins in hypoxic tumor cells; type: cell-based; settings: RKO and Su.86 cells, 0.5% O2 24 h, 2 ng/ml echinomycin
Description: FIG. 7. Inhibition of HIF1 and PDK1 increases oxygen consumption in vitro and in vivo. (a) Western blots of extracts from RKO and Su.86 cells exposed to normoxia (N) or hypoxia (H) (0.5% O2) for 24 h in the presence or absence of 2 ng/ml echinomycin probed for the indicated proteins. (b) Oxygen consumption rates of RKO and RKOShHIF1α cells (left) and Su.86 cells (right) after 24 h treatment with normoxia or hypoxia (0.5% O2) with or without 2 ng/ml echinomycin. Data are normalized to normoxic samples. (c) Relative oxygen consumption of RKO cells treated with hypoxia (0.5% O2) for 24 h in the presence of increasing concentrations of echinomycin. (d) Oxygen consumption rates of freshly explanted tumor tissue from RKO (n=16) and RKOShHIF1α (n=8) xenografts. (e) Oxygen consumption rates of RKO and RKOShHIF1 tumors from mice treated with 0.12 mg/kg echinomycin ip 24 h prior (n=8), or 50 mg/kg DCA ip 4 h prior (n=8). […]
Western blots. In brief, cells were harvested directly in RIPA buffer containing protease inhibitors, protein concentrations were quantified (Pierce), 25-50 μg of total protein was electrophoresed on a reducing Tris-Tricine gel, and electroblotted to PVDF membrane. […] Primary antibodies were detected with species-specific secondary antibodies labeled with Alkaline Phosphatase (Vector labs) (1:3000) and visualized with ECF (Amersham) on a Storm 860 phosphoimager (Molecular Devices).

[2] = system: Su.86 tumors; test: Tumor growth delay, Su.86 xenografts; type: in vivo, mouse; settings: tirapazamine followed by echinomycin at 24 hours, 6 cycles; compared to echinomycin followed by tirapazamine
Description: FIG. 10. Pharmacologic inhibition of HIF1 or PDK1 enhances the response of tumor xenografts to the hypoxic cytotoxin tirapazamine. For all experiments, treatment was initiated when the mean tumor volume was 100-200 mm^3. (a) RKO tumor bearing mice were treated with 0.12 mg/kg echinomycin ip followed by 30 mg/kg tirapazamine ip at 24 hours, followed by a rest day for 3 cycles. Single agents were given at the same dose, on the same schedule. (b) RKO tumor bearing mice were treated with 50 mg/kg DCA ip followed by 20 mg/kg tirapazamine ip at 4 hours daily for 14 days. Single agents were given at the same dose, on the same schedule. (c,d,e) RKO (c), RKOShHIF1α (d), or Su.86 (e) tumor bearing mice were treated with echinomycin plus tirapazamine as described above for 6 cycles (Ech+TPZ), or tirapazamine followed by echinomycin at 24 hours followed by a rest day for 6 cycles (TPZ+Ech). For all experiments, arrows indicate when treatment was stopped.
Cell lines and tumor xenografts. RKO human colon carcinoma cells and Su.86 human pancreatic carcinoma cells were obtained from the American Type Culture Collection (ATCC, Manassas, Va.). The RKOShHIF1α cell line in which HIF1α is stably knocked down by shRNA has been described previously. RKO and immortalized MEF cells were grown in Dulbecco's Modified Eagle's Media (DMEM) supplemented with 10% fetal bovine serum (FBS). […]

[3] = system: HIF1 responsive luciferase reporter in RKO cells; test: 5×HRE-luciferase reporter assay in vitro; type: cell-based, human; settings: 0.5% O2 24 h, increasing concentrations, dose dependent
Description: FIG. 8. Increasing oxygen consumption by inhibition of PDK activity increases tumor hypoxia. (a) Luciferase activity of wildtype and HIF1α knockdown RKO cells stably transfected with a HIF1 responsive luciferase reporter gene. Cells were exposed to 0.5% O2 for 24 hours in triplicate. Luminescence is normalized to normoxic HIF wildtype cells. (b) Luciferase activity of wildtype RKO HIF1 reporter cells exposed to 0.5% O2 for 24 hours in the presence of increasing concentrations of echinomycin. Data are normalized to the increase in signal observed in the absence of drug. (c) Bioluminescent imaging in vivo. Images show a representative animal bearing an RKO reporter tumor on the left flank and an RKOShHIF1α reporter tumor on the right flank as a function of time after ip injection of 50 mg/kg DCA. […] (d) Quantification of in vivo bioluminescence. […] The data represent the mean of three independent experiments, each comprising 5 RKO and 5 RKOShHIF1α reporter tumors.
Luciferase reporter assay. […] Cells were exposed to 0.5% O2 for 24 hr, and luciferase activity was measured in triplicate using a luciferase reporter gene assay kit (Roche) and a Monolight 2010 luminometer (Analytical Luminescence Laboratory). […]

With `CS[C@H]1SC[C@H]2C(=O)N(C)[C@@H](C(C)C)C(=O)OC[C@@H](NC(=O)c3cnc4ccccc4n3)C(=O)N[C@@H](C)C(=O)N(C)[C@@H]1C(=O)N(C)[C@@H](C(C)C)C(=O)OC[C@@H](NC(=O)c1cnc3ccccc3n1)C(=O)N[C@@H](C)C(=O)N2C` [echinomycin] the “hypoxic induction of PDK1, Bnip3, and Bnip3L (immunoblot)” value [1] was “blocked”, the “effect on growth of Su.86 tumors, reversed schedule” value [2] was “little effect” and the “hypoxic induction of luciferase in RKO reporter cells in vitro” value [3] was “completely inhibited”.
